According to patent US20220354834A1, “METHODS AND MATERIALS FOR TREATING NEUROTOXICITY” (Cavion, Inc., priority 2019, published 2022):

Tests used:
[1] = test system: proteasome; experiment: Proteasome inhibition assay in PBMCs of treated rats; assay type: in vivo, rat
Experimental: (§1) Wistar female rats (n=52) (Envigo, Correzzano, Italy) at 10-11 weeks of age were utilized. The study was divided into 2 phases of 4 weeks each. […] Body weight was measured periodically during phase 1 from baseline (day 1) to day 28. At baseline and conclusion of phase 1 (day 28), nerve conduction velocity (NCV) was performed on caudal and sciatic nerves and Dynamic Aesthesiometer Test (DAT) measured mechanical threshold (MT) of the hind paw. […] Body weight was measured periodically from baseline (day 28) to day 56 (termination). NCV and MT were measured in all 4 groups at baseline and on day 35 and 56. […] At termination, sciatic nerves were obtained for β-tubulin polymerization and skin samples were procured for intraepidermal nerve fiber (IENF) density and histopathology.

[2] = test system: RPMI 8226 cells; experiment: In vitro BTZ cytotoxicity study (SRB assay); assay type: cell-based; conditions: Homo sapiens, 72 hours, read-out: IC50 of % cell survival
[3] = test system: hind paw mechanical allodynia (BTZ-induced CIPN); experiment: CIPN-reversal study: Dynamic Aesthesiometer Test, mechanical threshold; assay type: in vivo, Wistar rat
Experimental: as §1
MT was assessed with the DAT device (Model 37450, Ugo Basile Biological Instruments, Comerio, Italy). After acclimation, a servo-controlled pointed metallic filament (0.5 mm diameter) was placed on plantar surface of the hind paw and exerted a progressive punctate pressure up to 50 grams within 20 seconds. The pressure elicited a voluntary hind paw withdrawal response that was recorded and represented MT index. MT was collected alternatively on each side every 2 minutes on 3 occasions to yield a mean value. Mean MT values represented maximum pressure (grams) tolerated by each rat. Exposure of each animal to mechanical stimulus was limited to 30 seconds.

[4] = CIPN-reversal study: body weight, tolerability, mortality; assay type: in vivo
Experimental: Rats were housed 2-3 per cage under similar environmental conditions as nude mice in the interference study.
as §1

[5] = test system: human MMCs (RPMI 8226, MM.1S, U266B1); experiment: In vitro cytotoxicity and combination (BTZ and CX-8998) interference study, SRB assay in the 3 MCLs; assay type: cell-based; conditions: 72 hours
Experimental: (§2) Cells were plated in 96-well plates (Eppendorf, Milano, Italy) at 10000 cells/well. […] After incubation, BTZ was diluted in culture medium at dose range for testing. Cells were fixed with trichloroacetic acid for 1 hour. Cells were stained with a solution of SRB in 1% acetic acid for 15 minutes. Unbound dye was removed by 5 washes with 1% acetic acid. Bound dye was dissolved with a solution of Tris (hydroxymethyl) aminomethane base and absorbance of content was measured at […]. Growth inhibition was expressed as percentage of DMSO control absorbance of cells and corrected for absorbance before addition of drug.
Differences in percent cell survival between each drug or drug combination and control were analyzed by non-linear least squares with statistical significance at p<0.05.

[6] = test system: U266B1 cells; experiment: In vitro BTZ cytotoxicity study (SRB assay); assay type: cell-based; conditions: Homo sapiens, 72 hours, read-out: IC50 of % cell survival
Experimental: (§3) MM.1S and U266B1 cells were obtained from the American Type Culture Collection (San Giovanni, Italy). All cell lines were maintained in floating culture with RPMI medium that contained 2 mM L-glutamine supplemented with 10% FBS, penicillin and streptomycin. MM.1S cell medium was supplemented with 1.5 g/L sodium bicarbonate, 10 mM HEPES and 1 mM sodium pyruvate. Cells were grown in 75 cm^2 culture flasks for floating cells (Corning Inc. Corning, N.Y., USA) at 37° C. in 5% CO2 and 95% air.
as §2

[7] = test system: MM.1S cells; experiment: In vitro BTZ cytotoxicity study (SRB assay); assay type: cell-based; conditions: Homo sapiens, MM1.S, 72 hours, read-out: IC50 of % cell survival
Experimental: as §3, §2

[8] = BTZ vs BTZ+ CX-8998 3 mg/kg, P > 0.05 ns
[9] = BTZ vs BTZ+ CX-8998 10 mg/kg, P > 0.05 ns
[10] = BTZ vs BTZ+ CX-8998 30 mg/kg, P > 0.05 ns
[11] = BTZ+ CX-8998 3 mg/kg vs BTZ+ CX-8998 30 mg/kg, P > 0.05 ns
[12] = BTZ+ CX-8998 10 mg/kg vs BTZ+ CX-8998 30 mg/kg, P > 0.05 ns
[13] = CTRL vs BTZ+ CX-8998 3 mg/kg, P > 0.05 ns
[14] = CTRL vs BTZ+ CX-8998 10 mg/kg, P < 0.05 *
[15] = CTRL vs BTZ+ CX-8998 30 mg/kg, P > 0.05 ns

CC(C)C[C@H](NC(=O)[C@H](Cc1ccccc1)NC(=O)c1cnccn1)B(O)O [BTZ, bortezomib, reference compound]
% proteasome activity in circulating PBMCs ([1]; BTZ, week 4 vs baseline, p<0.05): significant inhibition | proteasome activity ([1]; weeks 5 and 8, BTZ alone): similarly inhibited | IC50 [2]: 4 ± 1.7 nM | DYNAMIC TEST 8 WEEKS, Difference in rank sum (Dunn's Multiple Comparison Test) ([3]; CTRL vs BTZ, P < 0.001 ***): 23.19 | DYNAMIC TEST 5 WEEKS, Difference in rank sum (Dunn's Multiple Comparison Test) ([3]; CTRL vs BTZ, P < 0.05 *): 17.24 | mechanical threshold (MT) in hind paws ([3]; week 4, BTZ vs control, p<0.0001): significantly reduced | body weight change ([4]; rat, in vivo): not significantly different | tolerability ([4]; rat, in vivo): well tolerated | inhibition of cell growth (cytotoxicity) ([5]; BTZ 0.05-250 nM, 3 MCLs): concentration-dependent inhibition of cell growth | percent cell survival ([5]; BTZ alone at IC50 (6, 4, 2.5 nM) vs DMSO control, p<0.001): significantly reduced | IC50 [6]: 2.5 ± 0.6 nM | IC50 [7]: 6 ± 0.5 nM

CC(C)c1ccc(CC(=O)N[C@H](C)c2ccc(OCC(F)(F)F)cn2)cc1 [CX-8998, (R)-2-(4-Isopropylphenyl)-N-(1-(5-(2,2,2-Trifluoroethoxy)pyridin-2-yl)ethyl)acetamide]
DYNAMIC TEST 5 WEEKS, Difference in rank sum (Dunn's Multiple Comparison Test) [3, 8]: −13.99 | DYNAMIC TEST 8 WEEKS, Difference in rank sum (Dunn's Multiple Comparison Test) [3, 8]: −15.63 | DYNAMIC TEST 5 WEEKS, Difference in rank sum (Dunn's Multiple Comparison Test) [3, 9]: −0.7411 | DYNAMIC TEST 8 WEEKS, Difference in rank sum (Dunn's Multiple Comparison Test) [3, 9]: −6.500 | DYNAMIC TEST 5 WEEKS, Difference in rank sum (Dunn's Multiple Comparison Test) [3, 10]: −6.679 | DYNAMIC TEST 8 WEEKS, Difference in rank sum (Dunn's Multiple Comparison Test) [3, 10]: −9.688 | DYNAMIC TEST 8 WEEKS, Difference in rank sum (Dunn's Multiple Comparison Test) ([3]; BTZ+ CX-8998 3 mg/kg vs BTZ+ CX-8998 10 mg/kg, P > 0.05 ns): 9.125 | DYNAMIC TEST 5 WEEKS, Difference in rank sum (Dunn's Multiple Comparison Test) [3, 11]: 7.313 | DYNAMIC TEST 8 WEEKS, Difference in rank sum (Dunn's Multiple Comparison Test) [3, 11]: 5.938 | DYNAMIC TEST 5 WEEKS, Difference in rank sum (Dunn's Multiple Comparison Test) [3, 12]: −5.938 | DYNAMIC TEST 8 WEEKS, Difference in rank sum (Dunn's Multiple Comparison Test) [3, 12]: −3.188 | DYNAMIC TEST 5 WEEKS, Difference in rank sum (Dunn's Multiple Comparison Test) [3, 13]: 3.250 | DYNAMIC TEST 8 WEEKS, Difference in rank sum (Dunn's Multiple Comparison Test) [3, 13]: 7.563 | DYNAMIC TEST 5 WEEKS, Difference in rank sum (Dunn's Multiple Comparison Test) [3, 14]: 16.50 | DYNAMIC TEST 8 WEEKS, Difference in rank sum (Dunn's Multiple Comparison Test) [3, 14]: 16.69 | DYNAMIC TEST 5 WEEKS, Difference in rank sum (Dunn's Multiple Comparison Test) [3, 15]: 10.56 | DYNAMIC TEST 8 WEEKS, Difference in rank sum (Dunn's Multiple Comparison Test) [3, 15]: 13.50 | tolerability ([4]; BTZ in combination with CX-8998): well tolerated | mortality (animals) ([4]; one each in combinations of BTZ with 3 mg/kg and 10 mg/kg CX-8998): two | body weight change ([4]; weeks 5 and 8, BTZ in combination with 3, 10 and 30 mg/kg CX-8998): not significantly different
